In paper PMC6576746, “Rational discovery of dual-indication multi-target PDE/Kinase inhibitor for precision anti-cancer therapy using structural systems pharmacology” (PLoS Computational Biology, 2019):

Assays:
Test in all cases: cells
Set-up in all cases: species or system panel of human cancer cell lines; Eurofins OncoPanel proliferation; nuclei count by high-content fluorescence imaging, 10-point dose response
HuTu 80 = settings: Homo sapiens, HuTu80, 72 h, cell count, 3 days
In short: (§1)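 Ten half-log concentrations from 100 μM (0.1% DMSO max) applied one day post-seeding, 3-day exposure at 37°C; untreated time-zero plate for GI50. Readout is nuclear cell count by automated fluorescence imaging, giving EC50, IC50, GI50 and 0–10 activity area.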

G-402 = settings: Homo sapiens, G-402, 72 h, cell count, 3 days
In short: as §1

MCF7 = settings: Homo sapiens, MCF7, 72 h, cell count, 3 days
In short: as §1

SaOS2 = settings: Homo sapiens, SAOS-2, 72 h, cell count, 3 days
In short: as §1

PANC-1 = settings: Homo sapiens, PANC-1, 72 h, cell count, 3 days
In short: as §1

AGS = settings: Homo sapiens, AGS, 72 h, cell count, 3 days
In short: as §1

SW1353 = settings: Homo sapiens, SW1353, 72 h, cell count, 3 days
In short: as §1

CCRFCEM = settings: Homo sapiens, CCRF-CEM, 72 h, cell count, 3 days
In short: as §1

SW48 = settings: Homo sapiens, SW48, 72 h, cell count, 3 days
In short: as §1

HLE = settings: Homo sapiens, HLE, 72 h, cell count, 3 days
In short: as §1

TE 125.T = settings: 72 h, cell count, 3 days
In short: as §1

Jurkat = settings: Homo sapiens, Jurkat, 72 h, cell count, 3 days
In short: as §1

KHOS-240S = settings: KHOS-240S, 72 h, cell count, 3 days
In short: as §1

CaOV3 = settings: Homo sapiens, Caov-3, 72 h, cell count, 3 days
In short: as §1

[1] = 50% of maximum possible response

IC50 (MCF7; [1]): 32.4 µM
GI50 (MCF7; corrected for time zero): 19 µM
EC50 (MCF7; curve inflection point): 16.1 µM
IC50 (PANC-1; [1]): 80.9 µM
GI50 (PANC-1; corrected for time zero): 47 µM
EC50 (PANC-1; curve inflection point): 80.9 µM
IC50 (AGS; [1]): 4.21 µM
GI50 (AGS; corrected for time zero): 3.91 µM
EC50 (AGS; curve inflection point): 3.93 µM
IC50 (SW1353; [1]): 72.8 µM
GI50 (SW1353; corrected for time zero): 60.9 µM
EC50 (SW1353; curve inflection point): 72.8 µM
IC50 (CCRFCEM; [1]): 35.5 µM
GI50 (CCRFCEM; corrected for time zero): 28.5 µM
EC50 (CCRFCEM; curve inflection point): 35.5 µM
IC50 (SW48; [1]): 13.5 µM
GI50 (SW48; corrected for time zero): 9.81 µM
EC50 (SW48; curve inflection point): 13.5 µM
IC50 (Jurkat; [1]): 22.1 µM
GI50 (Jurkat; corrected for time zero): 18.2 µM
EC50 (Jurkat; curve inflection point): 22.1 µM
SMILES: C[C@@H]1CC(=O)NN=C1c1ccc(NN=C(C#N)C#N)cc1 [levosimendan]
IC50 (HuTu 80; [1]): 16 µM
GI50 (HuTu 80; corrected for time zero): 14.2 µM
EC50 (HuTu 80; curve inflection point): 16 µM
IC50 (G-402; [1]): 10.1 µM
GI50 (G-402; corrected for time zero): 4.83 µM
EC50 (G-402; curve inflection point): 6.76 µM
IC50 (SaOS2; [1]): 54.5 µM
GI50 (SaOS2; corrected for time zero): 35.7 µM
EC50 (SaOS2; curve inflection point): 54.5 µM
IC50 (HLE; [1]): 26.5 µM
GI50 (HLE; corrected for time zero): 24.3 µM
EC50 (HLE; curve inflection point): 25.2 µM
IC50 (TE 125.T; [1]): > 100 µM
GI50 (TE 125.T; corrected for time zero): 71.4 µM
EC50 (TE 125.T; curve inflection point): > 100 µM
IC50 (KHOS-240S; [1]): 16.9 µM
GI50 (KHOS-240S; corrected for time zero): 13.5 µM
EC50 (KHOS-240S; curve inflection point): 16.9 µM
IC50 (CaOV3; [1]): 37.4 µM
GI50 (CaOV3; corrected for time zero): 21.4 µM
EC50 (CaOV3; curve inflection point): 37.4 µM
